Experimental data reported in patent US11541033B2, “Agent for preventing or treating Alzheimer's disease” (FUJIFILM Toyama Chemical Co., Ltd., priority 2017, dated 2023).

Key:
Format in all cases: in vivo, human
[1] = test system: mild to moderate AD patients; experiment: Test Example 1: phase II placebo-controlled trial, ADCS-ADL change from baseline
Source text: (§1) Test Example 1 Multicenter Randomized Double-Blind Phase II Placebo-Controlled Trial for Assessing Effectiveness and Safety of Compound a in Mild to Moderate AD Patients
(§2) Patients were screened in a period from 42 days before treatment assignment to the assignment based on the following selection criteria. Patients matched (484 patients) were randomly divided into the following 3 groups and the trial was started.
(§3) • Patients who were probable AD and are 55 years old or older and 85 years old or younger at the time of obtaining consent of screening. • Patients with an MMSE score of 12 to 22 at the time of screening • Patients with a Modified Hachinski Ischemia Scale score of 4 or less • Patients who have been treated with a donepezil hydrochloride or rivastigmine transdermal system for at least 4 months before the baseline and with a stable dose thereof for 3 months before the baseline. • In the case of patients who have received memantine in addition to being treated with a donepezil hydrochloride or rivastigmine transdermal system, patients who have been treated with memantine for at least 4 months before the baseline and with a stable dose thereof for 3 months before the baseline. • Patients whose brain MRI or CT results match AD at the time of screening Organization of Groups: (1) High dose group: 224 mg of a test compound (160 mg in terms of Compound A) was orally administered once a day for 4 weeks and then 448 mg of a test compound (320 mg in terms of Compound A) was orally administered once a day for 48 weeks (158 patients) (2) Low dose group: 224 mg of a test compound (160 mg in terms of Compound A) was orally administered once a day for 52 weeks (166 patients) (3) Placebo group: placebo was orally administered once a day for 52 weeks (158 patients) Method of assessment: (1) ADAS-cog
(§4) The ADCS-ADL score of the subject was evaluated at the baseline (before administration of investigational drug on the first day of administration) and after 52 weeks and the level of impairment was assessed based on the change from the baseline.
(§5) Changes in the ADAS-cog score and the ADCS-ADL score after 52 weeks from the baseline were compared between the high dose group and the placebo group, and between the low dose group and the placebo group based on the Mixed-effect Models for Repeated Measures (MMRM) with a significance level of 5%. For models, fixed effects included the treatment groups and time, while covariates included age, the baseline of ADAS-cog or ADCS-ADL, the baseline of MMSE and ApoE4 genotype (positive/negative). The interaction between time and the treatment groups and the interaction between the baseline of ADAS-cog and time were also included.

[2] = test system: mild to moderate AD patients; experiment: Test Example 2: early phase II placebo-controlled trial, ADCS-ADL change from baseline; conditions: for Change in ADCS-ADL from baseline at week 52, least square means (95% confidence interval) / Change in ADCS-ADL from baseline at week 52, difference from placebo group (95% confidence interval): MMSE 22 or less at screening
Source text: Test Example 2 Multicenter Randomized Double-Blind Early Phase II Placebo-Controlled Trial for Assessing Effectiveness and Safety of Compound a in Mild to Moderate AD Patients
Patients were screened in a period from 28 days before treatment assignment to the assignment based on the following selection criteria. Patients matched (373 patients) were randomly divided into the following 2 groups and the trial was started.
• Patients who were probable AD and over or 50 years old or older and 90 years old or younger at the time of obtaining consent of screening. • Patients with an MMSE score of 15 to 24 at the time of screening • Patients with a Modified Hachinski Ischemia Scale score of 4 or less • Patients who have been treated with a donepezil hydrochloride for at least 6 months before the baseline and with a stable dose thereof for 3 months before the baseline. • Patients whose brain MRI or CT results match AD at the time of screening Organization of Groups: (1) Active drug group: 224 mg of a test compound (160 mg in terms of Compound A) was orally administered once a day for 52 weeks (176 patients) (2) Placebo group: placebo was orally administered once a day for 52 weeks (178 patients) Method of assessment: (1) ADAS-cog
as §4
Changes in the ADAS-cog score and the ADCS-ADL score after 52 weeks from the baseline were compared between the high dose group and the placebo group, and between the low dose group and the placebo group based on MMRM with a significance level of 5%. For models, fixed effects included the treatment groups and time, while covariates included the baseline of ADAS-cog or ADCS-ADL and the baseline of MMSE. The interaction between time and the treatment groups and the interaction between the baseline of ADAS-cog and time were also included. For the period from clinical diagnosis, the first day of administration of donepezil hydrochloride which was combined with Compound A was defined as the time of clinical diagnosis. Furthermore, to match the conditions with those of Test Example 1, the subject was patients with an MMSE score of 22 or less at the time of screening.

[3] = test system: mild to moderate AD patients; experiment: Test Example 1: phase II placebo-controlled trial, ADAS-cog change from baseline
Source text: as §1, §2, §3
The ADAS-cog score of the subject was evaluated at the baseline (before administration of investigational drug on the first day of administration) and after 52 weeks and the cognitive function was assessed based on the change from the baseline.
as §5

[4] = high dose group, more than 2.6 years from clinical diagnosis
[5] = high dose group, total (all periods from clinical diagnosis)
[6] = low dose group (160 mg in terms of Compound A, oral once a day, 52 weeks), within 2.6 years from clinical diagnosis
[7] = low dose group (160 mg), more than 2.6 years from clinical diagnosis
[8] = low dose group (160 mg), total (all periods from clinical diagnosis)
[9] = low dose group (160 mg), within 2.6 years from clinical diagnosis
[10] = low dose group (160 mg), total (all periods)

`OC1CN(CCCOCCc2ccc3sccc3c2)C1` [Compound A, 1-(3-(2-(1-benzothiophen-5-yl)ethoxy)propyl)azetidin-3-ol] was tested, and the “Reduction in ADCS-ADL from the baseline at week 52 (in words)” value ([1]; Test Example 1, high dose group) was “tended to be suppressed”, the “Tendency to suppress reduction in ADCS-ADL, patients within 2.6 years versus all patients (in words)” value ([1]; Test Example 1, high dose group, week 52) was “more remarkable” and the “Change in ADCS-ADL from baseline at week 52, least square means (95% confidence interval)” value ([1]; high dose group (160 mg 4 weeks then 320 mg 48 weeks, oral once a day), within 2.6 years from clinical diagnosis) was −8.6(−11.2, −5.9). The “Change in ADCS-ADL from baseline at week 52, difference from placebo group (95% confidence interval)” value [1, 4] was −0.9 (−4.7, 2.8), the “Change in ADCS-ADL from baseline at week 52, least square means (95% confidence interval)” value [1, 4] was −11.6(−14.5, −8.8) and the “Change in ADCS-ADL from baseline at week 52, difference from placebo group (95% confidence interval)” value [1, 5] was 1.2(−1.3, 3.8). The “Change in ADCS-ADL from baseline at week 52, least square means (95% confidence interval)” value [1, 5] was −10.1(−12.0, −8.1), the “Change in ADCS-ADL from baseline at week 52, difference from placebo group (95% confidence interval)” value ([1]; high dose group, within 2.6 years from clinical diagnosis) was 3.1(−0.4, 6.6) and the “Change in ADCS-ADL from baseline at week 52, least square means (95% confidence interval)” value [1, 6] was −11.7(−14.5, −9.0). For the same compound, the “Change in ADCS-ADL from baseline at week 52, difference from placebo group (95% confidence interval)” value [1, 7] was 0.3(−3.2, 3.8), the “Change in ADCS-ADL from baseline at week 52, least square means (95% confidence interval)” value [1, 7] was −10.4(−13.0, −7.8) and the “Change in ADCS-ADL from baseline at week 52, difference from placebo group (95% confidence interval)” value [1, 8] was 0.2(−2.3, 2.7). The “Change in ADCS-ADL from baseline at week 52, least square means (95% confidence interval)” value [1, 8] was −11.0(−13.0, −9.1), the “Change in ADCS-ADL from baseline at week 52, difference from placebo group (95% confidence interval)” value [1, 9] was 0.0(−3.6, 3.6) and the “Reduction in ADCS-ADL from the baseline at week 52 (in words)” value ([2]; Test Example 2, low dose group (160 mg)) was “tended to be suppressed”. For the same compound, the “Tendency to suppress reduction in ADCS-ADL, patients within 2.6 years versus all patients (in words)” value ([2]; Test Example 2, low dose group (160 mg), week 52) was “more remarkable”, the “Change in ADCS-ADL from baseline at week 52, least square means (95% confidence interval)” value [2, 6] was −5.5(−7.8, −3.2) and the “Change in ADCS-ADL from baseline at week 52, difference from placebo group (95% confidence interval)” value [2, 7] was −3.5(−7.8, 0.8). The “Change in ADCS-ADL from baseline at week 52, least square means (95% confidence interval)” value [2, 7] was −7.5(−10.8, −4.3), the “Change in ADCS-ADL from baseline at week 52, difference from placebo group (95% confidence interval)” value [2, 10] was 0.5(−2.0, 3.0) and the “Change in ADCS-ADL from baseline at week 52, least square means (95% confidence interval)” value [2, 10] was −6.2(−8,1, −4.3). The “Change in ADCS-ADL from baseline at week 52, difference from placebo group (95% confidence interval)” value [2, 9] was 2.6(−0.5, 5.7), the “Changes in ADAS-cog from the baseline at week 52, Compound A group versus placebo group (in words)” value ([3]; Test Example 1, all subject patients) was “no statistically significant difference” and the “Changes in ADAS-cog from the baseline at week 52, Compound A high dose group versus placebo group (in words)” value ([3]; Test Example 1, high dose group, patients within 2.6 years from clinical diagnosis of AD) was “statistically significant difference”. The “Difference in ADAS-cog change between high dose group and placebo group, compared by periods from clinical diagnosis (in words)” value ([3]; Test Example 1, high dose group, periods 2.5 to 6 years from clinical diagnosis of AD) was “larger in patients whose period was shorter”, the “Change in the ADAS-cog score, Compound A low dose group versus placebo group (in words)” value ([3]; Test Example 1, low dose group (160 mg), week 52) was “tended to be smaller than that in the placebo group” and the “Change in ADAS-cog from baseline at week 52, least square means (95% confidence interval)” value ([3]; high dose group (160 mg 4 weeks then 320 mg 48 weeks in terms of Compound A, oral once a day), within 2.5 years from clinical diagnosis) was 5.6. For the same compound, the “Change in ADAS-cog from baseline at week 52, difference from placebo group (95% confidence interval)” value ([3]; high dose group (160 mg 4 weeks then 320 mg 48 weeks, oral once a day), within 2.5 years from clinical diagnosis) was −3.3, the “Change in ADAS-cog from baseline at week 52, difference from placebo group (95% confidence interval)” value [3, 4] was 1.8(−1.0, 4.6) and the “Change in ADAS-cog from baseline at week 52, least square means (95% confidence interval)” value [3, 4] was 8.4(6.3, 10.5). The “Change in ADAS-cog from baseline at week 52, difference from placebo group (95% confidence interval)” value ([3]; high dose group, within 2.8 years from clinical diagnosis) was −2.5.
